Measurements as given in US20080070954A1, “Acylurea Connected And Sulfonylurea Connected Hydroxamates” (S*BIO PTE LTD., priority 2003, published 2008).

How the values were obtained:
[1] = target: T1, HDAC1 enzyme (recombinant GST-HDAC1) (Homo sapiens, UniProt Q13547); assay: In vitro HDAC assay for determination of IC50 values (BIOMOL fluorescent-based), HDAC1; type: biochemical; conditions: 600 nM HDAC1 enzyme, 500 μM Flur de lys generic substrate, 2 h room temperature
T1 construct: Amplification of human HDAC1 and HDAC8 coding region from this cDNA library; made in house; host or cells: SF9 insect cells (baculovirus, pDEST20 vector)
Protocol: (§1) Human cDNA library was prepared using cultured SW620 cells. Amplification of human HDAC1 and HDAC8 coding region from this cDNA library was cloned separately into the baculovirus expression pDEST20 vector and pFASTBAC vector respectively (GATEWAY Cloning Technology, Invitrogen Pte Ltd). The pDEST20-HDAC1 and pFASTBAC-HTGST-HDAC8 constructs were confirmed by DNA sequencing. Recombinant baculovirus was prepared using the Bac-To-Bac method following the manufacturer's instruction (Invitrogen Pte Ltd). Baculovirus titer was determined by plaque assay to be about 10^8 PFU/ml.
(§2) Expression of GST-HDAC1 or HTGST-HDAC8 was done by infecting SF9 cells (Invitrogen Pte Ltd) with pDEST20-HDAC1 or pFASTBAC-GST-HDAC8 baculovirus at MOI=1 for 48 h. Soluble cell lysate was incubated with pre-equilibrated Glutathione Sepharose 4B beads (Amersham) at 4° C. for 2 h. The beads were washed with PBS buffer for 3 times. The GST-HDAC1 protein or GST-HDAC8 protein was eluted by elution buffer containing 50 mM Tris, pH8.0, 150 mM NaCl, 1% Triton X-100 and 10 mM or 20 mM reduced Glutathione. The purified GST-HDAC1 protein or purified GST-HDAC8 protein was dialyzed with HDAC storage buffer containing 10 mM Tris, pH7.5, 100 mM NaCl and 3 mM MgCl2. 20% Glycerol was added to purified GST-HDAC1 protein or purified GST-HDAC8 before storage at −80° C.
The assay has been carried out in 96 well format and the BIOMOL fluorescent-based HDAC activity assay has been applied. The reaction composed of assay buffer, containing 25 mM Tris pH 7.5, 137 mM NaCl, 2.7 mM KCl, 1 mM MgCl2, 1 mg/ml BSA, tested compounds, 500 nM HDAC8 enzyme or 600 nM HDAC1 enzyme, 200 μM Flur de lys p53 peptide substrate for HDAC8 enzyme or 500 μM Flur de lys generic substrate for HDAC1 enzyme and subsequently was incubated at room temperature for 2 h. Flur de lys Developer was added and the reaction was incubated for 10 min. Briefly, deacetylation of the substrate sensitizes it to the developer, which then generates a fluorophore. The fluorophore is excited with 360 nm light and the emitted light (460 nm) is detected on a fluorometric plate reader (Tecan Ultra Microplate detection system, Tecan Group Ltd.).
(§3) The analytical software, Prism 3.0® (GraphPad Software Inc) has been used to generate IC50 from a series of data.

[2] = target: T2, HDAC8 enzyme (recombinant GST-HDAC8) (Homo sapiens, UniProt Q9BY41); assay: In vitro HDAC assay for determination of IC50 values (BIOMOL fluorescent-based), HDAC8; type: biochemical; conditions: 500 nM HDAC8 enzyme, 200 μM Flur de lys p53 peptide substrate, 2 h room temperature
T2 construct: Amplification of human HDAC1 and HDAC8 coding region from this cDNA library; made in house; host or cells: SF9 insect cells (baculovirus, pFASTBAC vector)
T2 sequence (Q9BY41 1-377): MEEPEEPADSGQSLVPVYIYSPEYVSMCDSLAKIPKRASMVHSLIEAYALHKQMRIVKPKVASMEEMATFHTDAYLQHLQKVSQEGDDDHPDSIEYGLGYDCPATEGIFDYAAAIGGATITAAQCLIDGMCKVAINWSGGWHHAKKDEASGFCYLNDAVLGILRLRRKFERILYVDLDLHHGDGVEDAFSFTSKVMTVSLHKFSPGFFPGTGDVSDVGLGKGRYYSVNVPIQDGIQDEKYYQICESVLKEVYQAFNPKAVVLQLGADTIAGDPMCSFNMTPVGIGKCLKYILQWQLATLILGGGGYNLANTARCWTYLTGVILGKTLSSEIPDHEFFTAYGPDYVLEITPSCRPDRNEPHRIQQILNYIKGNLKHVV
Protocol: as §1, with “The pDEST20-HDAC1 and pFASTBAC-HTGST-HDAC8 constructs were confirmed by DNA sequencing.” left out, “Ltd).” for “Ltd). Baculovirus titer was determined by plaque assay to be about 10^8 PFU/ml.”
as §2
The assay has been carried out in 96 well format and the BIOMOL fluorescent-based HDAC activity assay has been applied. […] Flur de lys Developer was added and the reaction was incubated for 10 min. Briefly, deacetylation of the substrate sensitizes it to the developer, which then generates a fluorophore. The fluorophore is excited with 360 nm light and the emitted light (460 nm) is detected on a fluorometric plate reader (Tecan Ultra Microplate detection system, Tecan Group Ltd.).
as §3

[3] = test system: Colo205 human colon cancer cell line; assay: Cell-based proliferation assay for determination of GI50 values, Colo205; conditions: COLO 205, Colo205 cells, 96 h treatment, cyquant assay, read-out: Colo 205 Gl50
Protocol: (§4) Human colon cancer cell lines (Colo205) and human breast cancer cell lines (MDA-MB435 and MDA-MB231) were obtained from ATCC. Colo205 cells were cultivated in RPMI 1640 containing 2 mM L-Glutamine, 5% FBS, 1.0 mM Na Pyruvate. MDA-MB231 cells were cultivated in RPMI 1640 containing 2 mM L-glutamine, 5% FBS. MDA-MB435 cells were cultivated in DMEM containing 2 mM L-Glutamine, 5% FBS. Colo205 cells were seeded in 96-wells plate at 5000 cells per well respectively. MDA-MB435 and MDA-MB231 cells were seeded in 96-wells plate at 6000 cells per well. The plates were incubated at 37° C., 5% CO2, for 24 h. Cells were treated with compounds at various concentrations for 96 h. Cell growth was then monitored using cyquant cell proliferation assay (Invitrogen Pte Ltd). Dose response curves were plotted to determine GI50 values for the compounds using XL-fit (ID Business Solution, Emeryville, Calif.).

[4] = test system: acetylated histone H4 in Colo205 cells; assay: Histone acetylation assay (western blot), histone H4; type: cell-based, human; set-up: key: “Active” means accumulation of acetylated histone was observed when compared with control (without compound); conditions: Colo205 cells, 0.1, 1, 5 and 10 μM, 24 h
Protocol: (§5) A hallmark of histone deacetylase (HDAC) inhibition is the increase in the acetylation level of histones. Histone acetylation, including H3, H4, H2A and H2B can be detected by immuno-blotting (western-blot). Colo205 cells, approximately 1.5×10^6 cells/10 cm dish, were seeded in the previously described medium, cultivated for 24 h and subsequently treated with HDAC inhibitory agents at 0.1, 1, 5 and 10 μM final concentration. After 24 h, cells were harvested and lysed according to the instruction from Sigma Mammalian Cell Lysis Kit. The protein concentration was quantified using BCA method (Sigma Pte Ltd). The protein lysate was separated using 4-12% bis-tris SDS-PAGE gel (Invitrogen Pte Ltd) and was transferred onto PVDF membrane (BioRad Pte Ltd). The membrane was probed separately using primary antibody specific for acetylated H3, acetylated H4 or acetylated H2A (Upstate Pte Ltd). The detection antibody, goat anti rabbit antibody conjugated with Horse radish peroxidase (HRP) was used according to the manufacturer instruction (Pierce Pte Ltd). After removing the detection antibody from the membrane, an enhanced chemiluminescent substrate for detection of HRP (Pierce Pte Ltd) was added onto the membrane. After removing the substrate, the membrane was exposed to an X-ray film (Kodak) for 1 sec-20 mins. The X-ray film was developed using the X-ray film processor. The density of each band observed on the developed film could be analysed using UVP Bioimaging software (UVP, Inc, Upland, Calif.). The values were then normalized against the density of actin in the corresponding samples to obtain the expression of the protein.

[5] = test system: MDA-MB231 human breast cancer cell line; assay: Cell-based proliferation assay for determination of GI50 values, MDA-MB231; conditions: MDA-MB231 cells, 96 h treatment, cyquant assay
Protocol: as §4

[6] = test system: acetylated histone H3 in Colo205 cells; assay: Histone acetylation assay (western blot), histone H3; type: cell-based, human; set-up: key: “Active” means accumulation of acetylated histone was observed when compared with control (without compound); conditions: Colo205 cells, 0.1, 1, 5 and 10 μM, 24 h
Protocol: as §5

[7] = test system: MDA-MB435 human breast cancer cell line; assay: Cell-based proliferation assay for determination of GI50 values, MDA-MB435; conditions: MDA-MB435 cells, 96 h treatment, cyquant assay
Protocol: as §4

[8] = test system: acetylated histone H2A in Colo205 cells; assay: Histone acetylation assay (western blot), histone H2A; type: cell-based, human; set-up: key: “Active” means accumulation of acetylated histone was observed when compared with control (without compound); conditions: Colo205 cells, 0.1, 1, 5 and 10 μM, 24 h
Protocol: as §5, with “After removing the substrate, the membrane was exposed to an X-ray film (Kodak) for 1 sec-20 mins. The X-ray film was developed using the X-ray film processor.” left out, “The values were then normalized against the density of actin in the corresponding samples to obtain the expression of the protein.” left out

[9] = test system: acetylated histone H2B in Colo205 cells; assay: Histone acetylation assay (western blot), histone H2B; type: cell-based, human; set-up: key: “Active” means accumulation of acetylated histone was observed when compared with control (without compound); conditions: Colo205 cells, 0.1, 1, 5 and 10 μM, 24 h
Protocol: as §5, with “After removing the substrate, the membrane was exposed to an X-ray film (Kodak) for 1 sec-20 mins. The X-ray film was developed using the X-ray film processor.” left out, “The values were then normalized against the density of actin in the corresponding samples to obtain the expression of the protein.” left out

T1 sequence (Q13547 whole entry): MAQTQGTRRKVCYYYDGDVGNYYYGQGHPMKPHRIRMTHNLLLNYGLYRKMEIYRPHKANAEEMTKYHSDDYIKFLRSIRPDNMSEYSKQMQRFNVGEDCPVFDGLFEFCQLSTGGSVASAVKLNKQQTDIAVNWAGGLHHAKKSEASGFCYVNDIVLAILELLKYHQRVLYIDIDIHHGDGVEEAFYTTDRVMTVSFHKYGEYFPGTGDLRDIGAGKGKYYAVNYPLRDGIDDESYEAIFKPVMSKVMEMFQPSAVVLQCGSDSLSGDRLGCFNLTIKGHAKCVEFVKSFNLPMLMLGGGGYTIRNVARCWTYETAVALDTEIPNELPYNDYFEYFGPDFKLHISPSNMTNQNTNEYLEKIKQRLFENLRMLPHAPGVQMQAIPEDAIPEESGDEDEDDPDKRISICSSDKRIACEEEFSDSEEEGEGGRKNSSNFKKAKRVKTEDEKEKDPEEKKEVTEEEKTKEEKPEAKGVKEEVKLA

SMILES	IC50 [1] [nM]	IC50 [2] [nM]	GI50 [3] [nM]	Histone 4 acetylation [4]	MDA-MB231 Gl50 [5] [µM]	Histone 3 acetylation [6]	MDA-MB435 Gl50 [7] [µM]	Hisotne 2A acetylation [8]	Histone 2B acetylation [9]
Cc1ccc(S(=O)(=O)NC(=O)NCCCCCC(=O)NO)cc1 [Example 1, 6-[3-(toluene-4-sulfonyl)ureido]-hexanoic acid hydroxyamide]	> 100000	790							
Cc1ccc(S(=O)(=O)NC(=O)Nc2ccc(/C=C/C(=O)NO)cc2)cc1 [Example 2]	2610	40							
Cc1ccc(S(=O)(=O)NC(=O)NCc2ccc(C(=O)NO)cc2)cc1 [Example 4]	2920	49							
Cc1ccc(S(=O)(=O)NC(=O)Nc2ccc(CC(=O)NO)cc2)cc1 [Example 5, N-Hydroxy-2-{4-[3-(toluene-4-sulfonyl)ureido]-phenyl}acetamide]	> 100000	140							
O=C(CCCCCCCNC(=O)NC(=O)c1ccccc1)NO [Example 12, 8-(3-Benzoyl-ureido)-octanoic acid hydroxyamide]	98	400	8030						
O=C(CCCCCCNC(=O)NC(=O)c1ccccc1)NO [Example 13, 7-(3-Benzoyl-ureido)-heptanoic acid hydroxyamide]	150	270	2680			Active			
Cc1ccc(S(=O)(=O)NC(=O)NCCCCCCCC(=O)NO)cc1 [Example 14]	1130	51							
O=C(CCCCCNC(=S)NC(=O)c1ccccc1)NO [Example 18, 6-(3-Benzoyl-thioureido)-hexanoic acid hydroxyamide]	27	520	2670			Active			
O=C(/C=C/c1ccc(CN(CCc2ccccc2)C(=O)NC(=O)c2ccccc2)cc1)NO [Example 23, 3-[4-(3-Benzoyl-1-phenethyl-ureidomethyl)-phenyl]-N-hydroxy-acrylamide]	12	200	150		0.26	Active			

Now from value to molecule, other results behind:

IC50 [1] [nM]	IC50 [2] [nM]	GI50 [3] [nM]	SMILES	Histone 4 acetylation [4]	MDA-MB231 Gl50 [5] [µM]	Histone 3 acetylation [6]	MDA-MB435 Gl50 [7] [µM]	Hisotne 2A acetylation [8]	Histone 2B acetylation [9]
130	41	1910	O=C(NCc1ccc(C(=O)NO)cc1)NC(=O)c1ccccc1 [Example 6, 4-(3-Benzoyl-ureidomethyl)-N-hydroxy-benzamide]	Active	1.92	Active	1.24		
> 100000	150		O=C(Cc1cccc(NC(=O)NC(=O)c2ccccc2)c1)NO [Example 7, 2-[3-(3-Benzoyl-ureido)-phenyl]-N-hydroxy-acetamide]						
> 100000	72		O=C(Cc1ccc(NC(=O)NC(=O)c2ccccc2)cc1)NO [Example 8, 2-[4-(3-Benzoyl-ureido)-phenyl]-N-hydroxy-acetamide]						
56	1070	1890	O=C(CCCCCNC(=O)NC(=O)c1ccccc1)NO [Example 10, 6-(3-Benzoyl-ureido)-hexanoic acid hydroxyamide]	Active	1.03	Active	1.79	Active	Active
		160	O=C(/C=C/c1ccc(CN(CCc2ccc(Br)cc2)C(=O)NC(=O)c2ccccc2)cc1)NO [Example 25, 3-(4-{3-Benzoyl-1-[2-(4-bromo-phenyl)-ethyl]-ureidomethyl}-phenyl)-N-hydroxy-acrylamide]						
2870	460		O=C(NO)c1ccc(CN2CCN(C(=O)NC(=O)c3ccccc3)CC2)cc1 [Example 30, 4-(4-Benzoylaminocarbonyl-piperazin-1-ylmethyl)-N-hydroxy-benzamide]						
48	230	630	O=C(/C=C/c1ccc(CN(CCN2CCCCC2)C(=O)NC(=O)c2ccccc2)cc1)NO [Example 46, 3-{4-[3-Benzoyl-1-(2-piperidin-1-yl-ethyl)-ureidomethyl]-phenyl}-N-hydroxy-acrylamide]			Active			
24	250		O=C(/C=C/c1ccc(CN(CCN2CCCC2)C(=O)NC(=O)c2ccccc2)cc1)NO [Example 47, 3-{4-[3-Benzoyl-1-(2-pyrrolidin-1-yl-ethyl)-ureidomethyl]-phenyl}-N-hydroxy-acrylamide]						
